In data set [1] the test system is parathyroid cell calcium receptor. Kind of data set: Cl^- current in Xenopus oocytes injected with (bovine) parathyroid cell mRNA. The class given is cell-based. Conditions: fendiline 100 μM. The procedure: (§1) Following incubation, an oocyte was placed into a 100-μl plastic chamber and superfused with MBS at a flow rate of 0.5 ml/min using a peristaltic pump. Test molecules or inorganic polycations were added by rapidly moving the tubing into different buffers. Recording and current passing electrodes were constructed from thin-wall capillary tubing pulled to a resistance of 1-3 Mohms and filled with 3M KCl. […] Currents were recorded directly onto a strip chart recorder.

Data set [2] has as its target T1, calcium receptor (Homo sapiens, UniProt P41180).
T1 construct: Xenopus oocytes injected with poly(A)+ mRNA from human hyperplastic parathyroid tissue
T1 sequence (P41180 20-1078): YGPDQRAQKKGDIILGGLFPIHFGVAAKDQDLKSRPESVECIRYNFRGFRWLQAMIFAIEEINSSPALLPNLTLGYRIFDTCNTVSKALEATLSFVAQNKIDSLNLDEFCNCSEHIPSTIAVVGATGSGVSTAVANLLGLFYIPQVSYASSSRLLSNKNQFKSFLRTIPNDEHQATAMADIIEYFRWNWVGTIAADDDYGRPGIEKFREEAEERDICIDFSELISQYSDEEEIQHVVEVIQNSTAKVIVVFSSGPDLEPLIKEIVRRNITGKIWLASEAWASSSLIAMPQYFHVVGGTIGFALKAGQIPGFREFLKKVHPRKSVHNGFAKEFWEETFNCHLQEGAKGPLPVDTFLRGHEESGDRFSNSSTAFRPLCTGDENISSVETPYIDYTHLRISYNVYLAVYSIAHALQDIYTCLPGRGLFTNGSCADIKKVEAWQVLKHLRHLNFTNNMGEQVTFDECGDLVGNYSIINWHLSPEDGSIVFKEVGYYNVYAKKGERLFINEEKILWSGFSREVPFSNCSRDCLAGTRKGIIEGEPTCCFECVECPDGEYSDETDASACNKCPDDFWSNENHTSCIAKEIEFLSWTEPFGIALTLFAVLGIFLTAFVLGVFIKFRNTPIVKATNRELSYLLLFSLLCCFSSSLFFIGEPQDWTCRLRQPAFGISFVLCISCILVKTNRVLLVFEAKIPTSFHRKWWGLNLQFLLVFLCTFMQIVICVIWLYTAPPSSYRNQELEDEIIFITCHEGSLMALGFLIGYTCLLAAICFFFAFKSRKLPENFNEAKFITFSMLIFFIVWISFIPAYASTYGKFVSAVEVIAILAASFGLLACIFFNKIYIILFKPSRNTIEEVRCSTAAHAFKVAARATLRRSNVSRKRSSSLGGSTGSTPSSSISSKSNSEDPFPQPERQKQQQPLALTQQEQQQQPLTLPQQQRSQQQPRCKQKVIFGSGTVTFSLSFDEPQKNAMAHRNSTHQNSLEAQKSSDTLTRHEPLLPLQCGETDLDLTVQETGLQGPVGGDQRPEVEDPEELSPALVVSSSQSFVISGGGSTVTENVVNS
Kind of data set: Xenopus oocytes injected with human parathyroid mRNA. The class given is cell-based. The method, then:
Oocytes were injected with poly(A)+-enriched mRNA from human parathyroid tissue (hyperplastic glands from a case of secondary HPT).
as §1
Using this screen allows one to test for an action directly on the calcium receptor. Oocytes expressing the calcium receptor also responded to several molecules active on intact parathyroid cells when screened as follows. […] This offers rather compelling evidence showing that these molecules act on the calcium receptor or on some other protein intimately associated with its function.

The nature of data set [3]: net positive charge. The data set is classed as physicochemical. Conditions: Table 1; at physiological pH.
In data set [4] the target is T2, parathyroid cell calcium receptor (Bos taurus, UniProt P35384).
T2 sequence (P35384 21-1085 limits assumed): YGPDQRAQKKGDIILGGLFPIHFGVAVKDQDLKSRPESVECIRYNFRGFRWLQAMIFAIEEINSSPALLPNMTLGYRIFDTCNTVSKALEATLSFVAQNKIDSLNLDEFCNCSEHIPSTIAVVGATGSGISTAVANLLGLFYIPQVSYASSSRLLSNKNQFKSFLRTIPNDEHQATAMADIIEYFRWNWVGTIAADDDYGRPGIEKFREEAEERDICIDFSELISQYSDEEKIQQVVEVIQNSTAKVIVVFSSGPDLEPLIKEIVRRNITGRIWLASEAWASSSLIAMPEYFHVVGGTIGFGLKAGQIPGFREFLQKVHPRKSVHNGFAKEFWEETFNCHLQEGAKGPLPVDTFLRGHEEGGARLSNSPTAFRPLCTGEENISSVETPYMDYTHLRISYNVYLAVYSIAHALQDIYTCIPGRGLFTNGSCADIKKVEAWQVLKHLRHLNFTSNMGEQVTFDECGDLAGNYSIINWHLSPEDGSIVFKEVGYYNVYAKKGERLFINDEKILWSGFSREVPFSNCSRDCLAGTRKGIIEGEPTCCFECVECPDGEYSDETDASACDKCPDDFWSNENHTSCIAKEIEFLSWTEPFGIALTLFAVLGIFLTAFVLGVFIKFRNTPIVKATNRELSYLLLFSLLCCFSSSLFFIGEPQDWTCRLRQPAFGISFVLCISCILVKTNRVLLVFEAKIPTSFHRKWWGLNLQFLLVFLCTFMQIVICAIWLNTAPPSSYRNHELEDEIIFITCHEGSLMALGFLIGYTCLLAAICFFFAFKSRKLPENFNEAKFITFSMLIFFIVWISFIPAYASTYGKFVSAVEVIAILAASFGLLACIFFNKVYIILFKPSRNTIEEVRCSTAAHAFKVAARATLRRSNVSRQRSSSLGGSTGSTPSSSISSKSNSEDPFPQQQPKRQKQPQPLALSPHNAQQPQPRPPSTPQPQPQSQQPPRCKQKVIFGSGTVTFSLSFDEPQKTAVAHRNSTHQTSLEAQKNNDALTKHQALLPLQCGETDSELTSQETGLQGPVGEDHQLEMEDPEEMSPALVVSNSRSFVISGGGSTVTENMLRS
Kind of data set: cell-based. The data set is classed as cell-based.
Description: For example,.bovine parathyroid cells loaded with fura-2 are initially suspended in buffer containing 0.5 mM CaCl2. A test substance is added to the cuvette in a small volume (5-15 μl) and changes in the fluorescence signal are measured. Cumulative increases in the concentration of the test substance are made in the cuvette until some predetermined concentration is achieved or no further changes in fluorescence are noted.
(§2) This section describes procedures used to obtain and treat parathyroid cells from calves and humans. […] Human parathyroid glands, were obtained from patients undergoing surgical removal of parathyroid tissue for primary or uremic hyperparathyroidism (uremic HPT), and were treated similarly to bovine tissue.
Glands were trimmed of excess fat and connective tissue and then minced with fine scissors into cubes approximately 2-3 mm on a side. Dissociated parathyroid cells were prepared by collagenase digestion and then purified by centrifugation in Percoll buffer. The resultant parathyroid cell preparation was essentially devoid of red blood cells, adipocytes, and capillary tissue as assessed by phase contrast microscopy and Sudan black B staining. Dissociated and purified parathyroid cells were present as small clusters containing 5 to 20 cells.
The cells were then transferred to plastic flasks (75 or 150 cm^2 ; Falcon) and incubated overnight at 37° C. in a humid atmosphere of 5% CO2. No serum is added to these overnight cultures, since its presence allows the cells to attach to the plastic, undergo proliferation, and dedifferentiate. Cells cultured under the above conditions were readily removed from the flasks by decanting, and show the same viability as freshly prepared cells.
The cells were then pelleted, resuspended in the same buffer, but lacking the ester, and incubated a further 15 minutes at 37° C. The cells were subsequently washed twice with PCB containing 0.5 mM CaCl2 and 0.5% BSA and maintained at room temperature (about 20° C.). Immediately before use, the cells were diluted five-fold with prewarmed 0.5mM CaCl2 -PCB to obtain a final BSA concentration of 0.1%. The concentration of cells in the cuvette used for fluorescence recording was 1-2×10^6 /ml.
The fluorescence of indicator-loaded cells was measured at 37° C. in a spectrofluorimeter (Biomedical Instrumentation Group, University of Pennsylvania, Philadelphia, Pa.) equipped with a thermostated cuvette holder and magnetic stirrer using excitation and emission wavelengths of 340 and 510 nm, respectively. […] Leakage of dye is dependent on temperature and most occurs within the first 2 minutes after warming the cells in the cuvette. Dye leakage increases only very slowly thereafter. To correct the calibration for dye leakage, cells were placed in the cuvette and stirred at 37° C. for 2-3 minutes. The cell suspension was then removed, the cells pelleted, and the supernatant returned to a clean cuvette. […] This estimate was subtracted from the apparent Fmin.
Dissociated bovine parathyroid cells were purified on gradients of Percoll and cultured overnight in serum-free medium. […] That is,

Data set [5] has as its system L-type voltage-sensitive Ca^2+ channel. Kind of data set: block of extracellular Ca^2+-induced increases in [Ca^2+]i in rMTC 6-23 cells. The data set is classed as cell-based, rat. Conditions: read-out: IC50 for block of extracellular Ca^2+-induced increases in [Ca^2+]i.
Data set [6] deals with T2, parathyroid cell calcium receptor. Description: block of extracellular Ca^2+-evoked increases in [Ca^2+]i in bovine parathyroid cells (calcilytic). The data set is classed as cell-based.
The test system of data set [7] is osteoclast calcium receptor. Kind of data set: [Ca^2+]i (indo-1) in rat osteoclasts. The class given is cell-based. Conditions: with or without 1 mM extracellular CaCl2.
The test system of data set [8] is rat osteoclasts. Description: inhibition of bone resorption (pit formation on bovine cortical bone slices). The class given is cell-based. Conditions: Osteoclast, 24 hours, read-out: IC50 for inhibition of bone resorption in vitro.
Description: This was done by morphometric analysis of pit formation on thin slices of bovine cortical bone using scanning electron microscopy.
Data set [9] has as its system bovine parathyroid cells. Kind of data set: PTH secretion from bovine parathyroid cells. The data set is classed as cell-based.
Description: In most experiments, cells loaded with fura-2 were also used in studies of PTH secretion.
PTH secretion was measured by first suspending cells in PCB containing 0.5 mM CaCl2 and 0.1% BSA.
In data set [10] the target is T3, parathyroid cell calcium receptor (Homo sapiens, UniProt P41180).
T3 construct: Dissociated parathyroid cells were prepared from a parathyroid adenoma obtained by surgery from a patient with primary hyperparathyroidism; endogenous in cells; host or cells: primary dissociated human parathyroid cells (adenoma or hyperplastic tissue from surgery)
T3 sequence (P41180 20-1078): T1 sequence (P41180 20-1078)
Description: [Ca^2+]i (fura-2) in human parathyroid cells. Conditions: 1 μM. The data set is classed as cell-based.
Description: as §2
Dissociated parathyroid cells were prepared from a parathyroid adenoma obtained by surgery from a patient with primary hyperparathyroidism.

Data set [11] deals with bovine parathyroid cells. Description: inositol phosphate formation in bovine parathyroid cells. The data set is classed as cell-based. The procedure: This section describes procedures measuring inositol phosphate formation. Membrane phospholipids were labeled by incubating parathyroid cells with 4 μCi/ml ^3 H-myo-inositol for 20-24 hours. Cells were then washed and resuspended in PCB containing 0.5 mM CaCl2 and 0.1% BSA. Incubations were performed in microfuge tubes in the absence or presence of various concentrations of organic polycation for different times. Reactions were terminated by the addition of 1 ml chloroform-methanol-12N HCl (200:100:1; v/v/v). Aqueous phytic acid hydrolysate (200 μl; 25 μg phosphate/tube). The tubes were centrifuged and 600 μl of the aqueous phase was diluted into 10 ml water.
Inositol phosphates were separated by ion-exchange chromatography using AG1-X8 in either the chloride- or formate-form. When only IP3 levels were to be determined, the chloride-form was used, whereas the formate form was used to resolve the major inositol phosphates (IP3, IP2, and IP1). For determination of just IP3, the diluted sample was applied to the chloride-form column and the column was washed with 10 ml 30 mM HCl followed by 6 ml 90 mM HCl and the IP3 was eluted with 3 ml 500 mM HCl. The last eluate was diluted and counted. […] The eluted samples from the formate columns were rotary evaporated, the residues brought up in cocktail, and counted.
The isomeric forms of IP3 were evaluated by HPLC. […]

The test system of data set [12] is bovine parathyroid cells. The data set is classed as cell-based. The method, then: This section describes measuring cyclic AMP levels. Cells were incubated as above for PTH secretion studies and at the end of the incubation, a 0.15-ml sample was taken and transferred to 0.85 ml of hot (70° C.) water and heated at this temperature for 5-10 minutes. The tubes were subsequently frozen and thawed several times and the cellular debris sedimented by centrifugation. Portions of the supernatant were acetylated and cyclic AMP concentrations determined by radioimmunoassay.
Bovine parathyroid cells were cultured for 16 hours with or without 100 ng/ml pertussis toxin. […] Each value is the mean±SEM of three experiments.

pIC50: −log10 of the molar value.

For `CC(NCCC(c1ccccc1)c1ccccc1)c1ccccc1` (racemic) [Fendiline, reference compound], in data set [1], the “Cl^- current in oocytes” value is on record as “oscillatory increases”.
For `C1CNCCNCCNCCNCCNCCN1` [Hexacyclen, 1,4,7,10,13,16-hexaaza-cyclooctadecane, reference compound], in data set [2], the “effective concentration for mobilization of intracellular Ca^2+ in oocytes” value was found to be 135 µM. Moreover, the “Net (+) Charge” value in data set [3] was “+6”. Also, in data set [4] ([Ca^2+]i), the “potency relative to NPS 383” value is given as 7 -fold and the “potency relative to pentaethylenehexamine” value was 25 -fold.
With `NCCCNCCCCNCCCNCCCN(O)CCCNC(=O)Cc1c[nH]c2cccc(O)c12` [NPS 015], the pIC50 in data set [5] is 5.52.
With `NCCCCCCCCCCCCNC(=O)Cc1ccc(O)cc1O` [NPS 021], the “change in [Ca^2+]i by the compound itself” value in data set [6] (0.5 mM extracellular Ca^2+) is “does not by itself cause any change in [Ca^2+ ]i”. In data set [6] (bovine parathyroid cells), the pIC50 is ~3.70. In data set [6] (read-out: concentration abolishing the increase in [Ca^2+]i evoked by extracellular Ca^2+), the IC100 was ~500 µM.
Regarding `CC(Cc1ccccc1)NCCC(c1ccccc1)c1ccccc1` (stereo not drawn) [Prenylamine], in data set [7], the “mobilization of [Ca^2+]i in rat osteoclasts” value was “mobilization of [Ca^2+ ]i”. The pIC50 in data set [8] is 5.00.
With `NCCCNCCCCNCCCN` [Spermine], the “inhibition of PTH secretion” value in data set [9] was “inhibited PTH secretion to the same extent as extracellular Ca^2+”.
Regarding `COCCOC(=O)C1=C(C)NC(C)=C(C(=O)OC(C)C)C1c1cccc([N+](=O)[O-])c1` (stereo not drawn) [nimodipine], in data set [10], the “effect on sustained increases in [Ca^2+]i elicited by extracellular Mg^2+” value is “not affected by nimodipine”.
protamine: in data set [9], the “inhibition of PTH secretion” value was “inhibited PTH secretion to the same extent as extracellular Ca^2+”. Further, the “formation of IP3” value in [11] is on record as “rapid (within 30 seconds) increase”. For the same molecule, the “increases in [Ca^2+]i” value in [4] is “rapid and transient increases in [Ca^2+ ]i”. Further, the “cyclic AMP (+PTx)” value in data set [12] is listed as 89 ± 9 % of control. Besides, the “cyclic AMP (control, without pertussis toxin)” value in [12] (10 μM isoproterenol, 2.0 mM Ca^2+, or 0.5 mM Ca^2+ with 200 μM spermine, 30 μM neomycin B or 2 μg/ml protamine, mean±SEM of three experiments) is listed as 20 ± 4 % of control.

The record behind these values is patent publication US5688938A, “Calcium receptor-active molecules” (priority 1995, dated 1997).
